Tests used:
[1] = pharmacokinetics of drospirenone; type: in vivo; conditions: i.e. after at most a week
From the text: For example, in the present study, there was, a significant reduction of edema and breast tenderness among long-cycle users in comparison with the women on the conventional 21-day monthly cycle. Thus, in the event of these symptoms being present, a regimen of 42-126 days could be recommended.

[2] = in vivo; cited from earlier work
[3] = Hershberger test; cited from earlier work

C[C@]12CCC(=O)C=C1[C@@H]1C[C@@H]1[C@H]1[C@@H]3[C@@H]4C[C@@H]4[C@@]4(CCC(=O)O4)[C@@]3(C)CC[C@@H]12 [drospirenone]
time to steady state [1]: about four | half-life [2]: about 27 h | antiandrogenic properties compared with chlormadinone acetate [3]: exceed those of chlormadinone acetate | antiandrogenic properties relative to cyproterone acetate [3]: approximately one-third

From patent publication US8501720B2, “Method for treatment of dysmenorrhea” (Bayer Pharma AG, priority 2004, dated 2013)
